Data as given in publication PMC6429214, “Design, Synthesis and Biological Evaluation of Isoxazole-Based CK1 Inhibitors Modified with Chiral Pyrrolidine Scaffolds” (Molecules, 2019).
Counter-ions that a name gives are not always drawn.

Legend:
[1] = target: T1, human CK1δ transcription variant 1 (Homo sapiens, UniProt P48730); experiment: in-vitro kinase assay CK1δ; assay type: biochemical; conditions: 10 µM ATP, mean ± SD, n = 3; for remaining activity at 10 µM: read-out: CK1δ Residual Activity [%] at 10 µM ± SD
T1 construct: made in house; own knowledge
Excerpt: Human CK1δ transcription variant 1 (CK1δ TV1_NM_001893.4) has been amplified from the cDNA obtained from HT1080 cell line, using CK1δ_forward-primer: 5′-GGATCCATGGAGCTGAGAGTCGGGAACAG-3′ and CK1δ_reverse primer: 5′-GGATCCTCATCGGTGCACGACAGACTGA-3′. The CK1δ DNA construct was cloned into pSC-A cloning vector (Agilent technologies, Munich, Germany) with BamHI enzyme, to generate plasmids pGEX6-P3-GST-CK1δ TV1 (FP1417). Overexpression and purification of GST-CK1δ TV1 protein has been performed as described before.
(§1) In vitro kinase assays have been performed to both screen, as well as to calculate IC50 values of the compounds for CK1δ and ε. Each reaction was carried out using 2 μCi ^32P-γ-ATP in kinase buffer containing 25 mM Tris-HCl (pH = 7.5), 10 mM MgCl2, 100 µM EDTA, and 10 µM ATP. […] Recombinant human CK1δ transcription variant 1 (expressed and purified as GST fusion protein as described earlier) and human GST-CK1ε (PV3500; Invitrogen) were used as sources of enzyme, while α-casein (C6780; Sigma-Aldrich) was used as substrate. Kinase reactions were incubated for 30 min at 30 °C and then stopped with loading dye (50 mM Tris-HCl (pH = 6.8), 5% (v/v) β-mercaptoethanol (MSH), 10% (v/v) glycerol, 2% (w/v) sodium dodecyl sulfate (SDS), 0.1% (w/v) bromphenol blue). Subsequently, reactions were separated by sodium dodecyl sulfate polyacrylamide gel electrophoresis (SDS-PAGE) and phosphorylated protein bands were visualized on dried gels by autoradiography. The phosphorylated substrate protein bands were excised, and phosphorylation was quantified by Cherenkov counting. Dose-response analyses and calculation of IC50 values were carried out using GraphPad Prism 6 statistical software (San Diego, CA, USA).

[2] = target: T2, human GST-CK1ε (Homo sapiens, UniProt P49674); experiment: in-vitro kinase assay CK1ε; assay type: biochemical; conditions: 10 µM ATP, mean ± SD, n = 3; for remaining activity at 10 µM: read-out: CK1ε Residual Activity [%] at 10 µM ± SD
T2 construct: purchased Invitrogen PV3500
Experimental: as §1

[3] = MTT cell viability assay MCF-7; assay type: cell-based, human; conditions: human, MCF-7 cells, mean ± SD
Experimental: (§2) The human colon adenocarcinoma cell line HT-29 was grown in McCoy’s 5A medium, whereas MCF7 cells were grown in DMEM medium. All media were supplemented with 10% fetal calf serum (FCS), 100 units/mL penicillin, 100 µg/mL streptomycin and 2 mM glutamine. All cells were grown at 37 °C in a humidified 5% carbon dioxide atmosphere.
(§3) In order to analyze the effects of selected inhibitors on the cell viability of HT-29 and MCF7 cells, MTT assays were performed. 1 × 10^4 cells/well were seeded in 96-well cell culture plates. After 24 h cells were treated with increasing concentrations of the indicated inhibitor compounds, with untreated and DMSO-treated cells as control. After an incubation period of 48 h, 10 µL of MTT solution (5 mg/mL in PBS) were added and cells were incubated for 4 h. MTT-containing medium was carefully removed and 100 µL acidic isopropanol (0.04 N HCl in isopropanol) per well were added. To dissolve formazan crystals, plates were shaken for 30 min on an orbital shaker in the dark. Finally, dissolved crystals were measured spectrophotometrically at 570 nm. All experiments were performed in triplicate with four technical replicates per assay. Results were normalized considering the mean optical density value of control wells as 100%. GraphPad Prism 6 software (San Diego, CA, USA) was used to calculate EC50 values.

[4] = MTT cell viability assay HT-29; assay type: cell-based, human; conditions: human, HT-29 cells, mean ± SD
Experimental: as §2, §3

[5] = test system: MCF-7 cells; experiment: MTT cell viability assay MCF-7; assay type: cell-based, human; conditions: mean ± SD
Experimental: as §2, §3

[6] = test system: HT-29 cells; experiment: MTT cell viability assay HT-29; assay type: cell-based, human; conditions: mean ± SD
Experimental: as §2, §3

[7] = LC-MS of aqueous solutions with and without PEG; assay type: physicochemical; conditions: LC-MS over 7 days, not in solutions without PEG
Excerpt: Since all analytical data for the originally employed inhibitors was consistent with the given structures, we postulate that the incorporation of an additional methylene group occurred via spontaneous Pictet-Spengler cyclization during crystallization. In line with this notion, PEG, which has been used in our soaking solutions, is known to generate formaldehyde traces that have been shown in the past to affect the derivatization of both, proteins and ligands. To further corroborate this hypothesis, we examined whether simple exposure of 29d/e to formaldehyde would give rise to the same Pictet-Spengler products 31a/b (Scheme 5). Indeed, when compounds 29d/e were treated with formaldehyde at room temperature 31a/b were formed readily and the obtained spectroscopic data was consistent with the predicted Pictet-Spengler products. In addition, aqueous solutions of 29d and 29e with and without PEG were analyzed by liquid chromatography-mass spectrometry (LC-MS) over a period of 7 days.
LC-MS was performed with a Bruker Esquire ~LC ion trap mass spectrometer (Bremen, Germany) in the positive ion mode (dry gas 9 L/min, nebulizer 35 psi, drying temperature 350 °C) after chromatographic separation using an Agilent 1100 HPLC system (Waldbronn, Germany) with a RP-8 column (Agilent Eclipse XDB-C8, 150 × 4.6 mm, 5 μm) and a 0.1% acetic acid/acetonitrile gradient.

[8] = test system: IRAK4; conditions: cited from earlier work
[9] = test system: p38α; design: method as in PMID 18763757; conditions: cited from earlier work
[10] = test system: Trk; design: method as in PMID 20336234; conditions: cited from earlier work
[11] = test system: CK1δ; design: method as in PMID 19591487; conditions: cited from earlier work

T2 sequence (P49674 whole entry): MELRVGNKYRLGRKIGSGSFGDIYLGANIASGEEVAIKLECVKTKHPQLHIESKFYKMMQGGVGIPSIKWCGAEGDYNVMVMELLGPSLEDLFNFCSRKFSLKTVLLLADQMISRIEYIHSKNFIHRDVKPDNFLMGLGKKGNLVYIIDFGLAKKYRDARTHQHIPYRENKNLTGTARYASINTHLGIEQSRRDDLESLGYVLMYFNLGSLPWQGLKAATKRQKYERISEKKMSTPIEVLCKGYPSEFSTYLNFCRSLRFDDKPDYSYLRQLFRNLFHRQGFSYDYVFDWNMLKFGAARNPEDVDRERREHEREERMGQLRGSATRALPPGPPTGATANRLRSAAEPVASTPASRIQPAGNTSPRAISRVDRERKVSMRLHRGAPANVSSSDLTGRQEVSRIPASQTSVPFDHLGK

COc1ccc(-c2cc(C(=O)Nc3cc(-c4c(-c5ccc(F)cc5)noc4C(C)C)ccn3)n(CC3NCC(O)C3O)c2)cc1 (centres unmarked) (as salt: trifluoroacetate) [29d]
melting point: 191 to 193 °C

COc1ccc(-c2cc(C(=O)Nc3cc(-c4c(-c5ccc(F)cc5)noc4C(C)C)ccn3)n(CC3NCC(O)C3O)c2)cc1 (centres unmarked) (as salt: trifluoroacetate) [29e]
melting point: 188 to 191 °C

COc1ccc(-c2cc(C(=O)Nc3cc(-c4c(-c5ccc(F)cc5)noc4C(C)C)ccn3)n(C)c2)cc1 [28a, N-{4-[3-(4-Fluorophenyl)-5-isopropylisoxazol-4-yl]pyridin-2-yl}-4-(4-methoxyphenyl)-1-methyl-1H-pyrrole-2-carboxamide]
remaining activity at 10 µM ([1]; 10 µM compound): 48 ± 7% | remaining activity at 10 µM ([2]; 10 µM compound): 70 ± 21% | viability at 48 h, 5 µM [3]: 103 ± 16% | viability at 48 h, 10 µM [3]: 88 ± 9% | viability at 48 h, 20 µM [3]: 54 ± 5% | viability at 48 h, 5 µM [4]: 111 ± 19% | viability at 48 h, 10 µM [4]: 98 ± 22% | viability at 48 h, 20 µM [4]: 78 ± 10% | melting point: 157 to 158 °C

COc1ccc(-c2cc(C(=O)Nc3cc(-c4c(-c5ccc(F)cc5)noc4C(C)C)ccn3)n(C)c2)c(OC)c1 [28b, 4-(2,4-Dimethoxyphenyl)-N-{4-[3-(4-fluorophenyl)-5-isopropylisoxazol-4-yl]pyridin-2-yl}-1-methyl-1H-pyrrole-2-carboxamide]
remaining activity at 10 µM ([1]; 10 µM compound): 48 ± 4% | remaining activity at 10 µM ([2]; 10 µM compound): 47 ± 11% | viability at 48 h, 5 µM [3]: 89 ± 13% | viability at 48 h, 10 µM [3]: 84 ± 11% | viability at 48 h, 20 µM [3]: 79 ± 12% | viability at 48 h, 5 µM [4]: 94 ± 23% | viability at 48 h, 10 µM [4]: 59 ± 14% | viability at 48 h, 20 µM [4]: 52 ± 10%

CC(C)c1onc(-c2ccc(F)cc2)c1-c1ccnc(NC(=O)c2cccn2C[C@H]2NC[C@H](O)[C@@H]2O)c1 [29c, (2R,3R,4S)-2-{[2-({4-[3-(4-Fluorophenyl)-5-isopropylisoxazol-4-yl]pyridin-2-yl}carbamoyl)-1H-pyrrol-1-yl]methyl}-3,4-dihydroxypyrrolidin-1-ium trifluoroacetate]
IC50 [1]: 0.45 ± 0.07 µM | remaining activity at 10 µM ([1]; 10 µM compound): 7.7 ± 0.2% | IC50 [2]: 1.5 ± 0.3 µM | remaining activity at 10 µM ([2]; 10 µM compound): 18 ± 1% | viability at 48 h, 5 µM [3]: 90 ± 10% | viability at 48 h, 10 µM [3]: 81 ± 5% | EC50 ([5]; Homo sapiens, MCF7, 48 h): 39000 ± 12000 nM | viability at 48 h, 5 µM [4]: 80 ± 16% | viability at 48 h, 10 µM [4]: 78 ± 11% | EC50 ([6]; Homo sapiens, HT-29, 48 h): 24000 ± 6000 nM

COc1ccc(-c2cc(C(=O)Nc3cc(-c4c(-c5ccc(F)cc5)noc4C(C)C)ccn3)n(CC3NCC(O)C3O)c2)cc1 (centres unmarked) [29e]
IC50 [1]: 0.047 ± 0.004 µM | CK1δ Residual Activity [%] at 10 µM ± SD ([1]; 10 µM compound): 3.4 ± 0.7% | IC50 [2]: 0.063 ± 0.009 µM | CK1ε Residual Activity [%] at 10 µM ± SD ([2]; 10 µM compound): 14 ± 3% | MCF-7 Cell Viability [%] 5 µM ([5]; 5 µM, 48 h): 90 ± 27% | MCF-7 Cell Viability [%] 10 µM ([5]; 10 µM, 48 h): 58 ± 18% | MCF-7 Cell Viability [%] 20 µM ([5]; 20 µM, 48 h): 8.0 ± 3.4% | EC50 ([5]; 48 h): 10000 ± 2000 nM | HT-29 Cell Viability [%] 5 µM ([6]; 5 µM, 48 h): 75 ± 13% | HT-29 Cell Viability [%] 10 µM ([6]; 10 µM, 48 h): 42 ± 10% | HT-29 Cell Viability [%] 20 µM ([6]; 20 µM, 48 h): 11 ± 3% | EC50 ([6]; 48 h): 8800 ± 800 nM | formation of Pictet-Spengler products in aqueous solution with PEG [7]: significant product formation

COc1ccc(-c2cc(C(=O)Nc3cc(-c4c(-c5ccc(F)cc5)noc4C(C)C)ccn3)n(C[C@H]3NC[C@H](O)[C@@H]3O)c2)c(OC)c1 [29f]
IC50 [1]: 0.037 ± 0.004 µM | remaining activity at 10 µM ([1]; 10 µM compound): 2.8 ± 0.5% | IC50 [2]: 0.1 ± 0.014 µM | remaining activity at 10 µM ([2]; 10 µM compound): 9.7 ± 1.6% | viability at 5 µM ([5]; Homo sapiens, MCF7, 48 h, 5 µM): 87 ± 5% | viability at 10 µM ([5]; Homo sapiens, MCF7, 48 h, 10 µM): 33 ± 7% | viability at 20 µM ([5]; Homo sapiens, MCF7, 48 h, 20 µM): 3.9 ± 0.2% | EC50 ([5]; Homo sapiens, MCF7, 48 h): 9600 ± 800 nM | viability at 5 µM ([6]; Homo sapiens, HT-29, 48 h, 5 µM): 50 ± 10% | viability at 10 µM ([6]; Homo sapiens, HT-29, 48 h, 10 µM): 25 ± 5% | viability at 20 µM ([6]; Homo sapiens, HT-29, 48 h, 20 µM): 9.4 ± 3% | EC50 ([6]; Homo sapiens, HT-29, 48 h): 5400 ± 400 nM

COc1ccc(-c2cc(C(=O)Nc3cc(-c4c(-c5ccc(F)cc5)noc4C(C)C)ccn3)n3c2CN2C[C@H](O)[C@H](O)[C@H]2C3)cc1 [31a, (1R,2S,10aR)-N-{4-[3-(4-Fluorophenyl)-5-isopropylisoxazol-4-yl]pyridin-2-yl}-1,2-dihydroxy-6-(4-methoxyphenyl)-2,3,10,10a-tetrahydro-1H,5H-dipyrrolo[1,2-a:1’,2’-d]pyrazine-8-carboxamide]
IC50 [1]: 0.011 ± 0.001 µM | IC50 [2]: 0.056 ± 0.005 µM | EC50 ([5]; 48 h): 1300 ± 200 nM | EC50 ([5]; Homo sapiens, MCF7, 48 h): < 2000 nM | EC50 ([6]; 48 h): 1100 ± 100 nM | EC50 ([6]; Homo sapiens, HT-29, 48 h): < 2000 nM

COc1ccc(-c2cc(C(=O)Nc3cc(-c4c(-c5ccc(F)cc5)noc4C(C)C)ccn3)n3c2CN2C[C@@H](O)[C@@H](O)[C@@H]2C3)cc1 [31b, (1S,2R,10aS)-N-{4-[3-(4-Fluorophenyl)-5-isopropylisoxazol-4-yl]pyridin-2-yl}-1,2-dihydroxy-6-(4-methoxyphenyl)-2,3,10,10a-tetrahydro-1H,5H-dipyrrolo[1,2-a:1’,2’-d]pyrazine-8-carboxamide]
IC50 [1]: 0.024 ± 0.004 µM | IC50 [2]: 0.196 ± 0.026 µM | EC50 ([5]; 48 h): 1900 ± 300 nM | EC50 ([5]; Homo sapiens, MCF7, 48 h): < 2000 nM | EC50 ([6]; 48 h): 1400 ± 200 nM | EC50 ([6]; Homo sapiens, HT-29, 48 h): < 2000 nM

Cc1cc(Nc2ncc(-c3nc4ccncc4s3)c(N[C@@H]3C[C@H](CO)[C@@H](O)[C@H]3O)n2)cc(C)n1 [compound 4]
IC50 [8]: 0.3 nM

CC(C)C(C)Nc1cc(-c2[nH]c(SC[C@@H](O)CO)nc2-c2ccc(F)cc2)ccn1 (some centres unmarked) [compound 5]
IC50 [9]: 15 nM

C[C@]12O[C@H](C[C@]1(O)CO)n1c3ccccc3c3c4c(c5c6ccccc6n2c5c31)CNC4=O [compound 7]
IC50 [10]: 25 nM

COc1ccc(/C=C/C(=O)Nc2cc(-c3c(-c4ccc(F)cc4)noc3C(C)C)ccn2)c(OC)c1 [compound 8]
IC50 [11]: 33 nM
